# Measurements as given in patent US8932826B2, “Method for simultaneously determining multiple coagulation proteases” (Siemens Healthcare Diagnostics Products GmbH, priority 2010, dated 2015).
# Tests used:
# human factor Xa = human factor Xa (Homo sapiens, UniProt P00742); test: Simultaneous chromogenic determination of factor Xa inhibition in enriched normal plasma (Z-D-Leu-Gly-Arg-ANBA-methylamide, 405 nm); assay type: biochemical
# Description: (§1) The following components were mixed to form one reaction: • 10 μl sample • 10 μl pool of normal human plasma • 40 μl substrate reagent (4 mM Z-D-Leu-Gly-Arg-ANBA-methylamide, 0.8 mM Tos-Gly-Pro-Arg-Basic Blue 49 in mannitol buffer, pH 4.0) • 100 μl factor Xa reagent (0.75 U/ml human factor Xa in 4.5 g/l TRIS, 9 g/l NaCl, 0.56 g/l EDTA, pH 8.0) • 100 μl thrombin reagent (5 U/ml bovine thrombin in 1.2 g/l TRIS, pH 8.2)
# (§2) The sample used was normal human plasma. Factor Xa cleaves ANBA from the factor Xa-specific peptide substrate Z-D-Leu-Gly-Arg-ANBA-methylamide, increasing over time the optical density in the reaction at a wavelength of 405 nm. At the same time, thrombin cleaves Basic Blue 49 from the thrombin-specific peptide substrate Tos-Gly-Pro-Arg-Basic Blue 49, increasing over time the optical density in the reaction at a wavelength of 575 nm.
# (§3) The measurements of the optical densities of the reaction at 405 nm and 575 nm and the evaluation of the reaction kinetics were carried out simultaneously in a fully automated Sysmex® CS-2000i coagulation analyzer. To measure the optical densities, the reaction was irradiated alternately with light of the aforementioned wavelengths, and the absorbance of the light, caused by the coloration of the reaction, was determined as a function of wavelength and time.
# (§4) The increases in the reaction kinetics for normal plasma without inhibitors were defined as 100% of the respective enzyme activity.
# bovine thrombin = bovine thrombin (Bos taurus, UniProt P00735); test: Simultaneous chromogenic determination of thrombin inhibition in enriched normal plasma (Tos-Gly-Pro-Arg-Basic Blue 49, 575 nm); assay type: biochemical
# Description: as §1, §2, §3
# Normal plasma was enriched with various concentrations of rivaroxaban, a specific factor Xa inhibitor, and/or of argatroban, a specific thrombin inhibitor, and used as a sample in a method as per example 1.
# as §4
# Chain of human factor Xa (P00742 235-488 limits assumed): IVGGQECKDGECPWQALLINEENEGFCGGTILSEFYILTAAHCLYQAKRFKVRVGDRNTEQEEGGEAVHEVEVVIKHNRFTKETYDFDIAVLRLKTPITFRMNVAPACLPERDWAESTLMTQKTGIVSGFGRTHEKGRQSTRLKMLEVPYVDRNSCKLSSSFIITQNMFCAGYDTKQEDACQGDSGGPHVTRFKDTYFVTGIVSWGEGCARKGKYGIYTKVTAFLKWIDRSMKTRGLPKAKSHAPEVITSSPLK
# Chain of human factor Xa (P00742 41-179 partner limits assumed): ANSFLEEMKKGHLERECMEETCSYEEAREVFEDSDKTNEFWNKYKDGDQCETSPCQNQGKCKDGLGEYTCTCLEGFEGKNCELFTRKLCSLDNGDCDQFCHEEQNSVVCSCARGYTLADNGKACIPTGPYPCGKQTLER
"inhibition at 0.375 µg/mL (human factor Xa; normal plasma enriched with argatroban 375 ng/ml, rivaroxaban 0 ng/ml, read-out: F Xa inhibition [%])","inhibition at 0.75 µg/mL (human factor Xa; normal plasma enriched with argatroban 750 ng/ml, rivaroxaban 0 ng/ml, read-out: F Xa inhibition [%])","inhibition at 0.375 µg/mL (bovine thrombin; normal plasma enriched with argatroban 375 ng/ml, rivaroxaban 0 ng/ml)","inhibition at 0.75 µg/mL (bovine thrombin; normal plasma enriched with argatroban 750 ng/ml, rivaroxaban 0 ng/ml)","inhibition of thrombin activity, in words (FIG. 2) (bovine thrombin; samples having an increased argatroban concentration, irrespective of the rivaroxaban concentration)","inhibition at 0.125 µg/mL (human factor Xa; normal plasma enriched with rivaroxaban 125 ng/ml, argatroban 0 ng/ml, read-out: F Xa inhibition [%])","inhibition at 0.25 µg/mL (human factor Xa; normal plasma enriched with rivaroxaban 250 ng/ml, argatroban 0 ng/ml, read-out: F Xa inhibition [%])","inhibition of factor Xa activity, in words (FIG. 1) (human factor Xa; samples having an increased rivaroxaban concentration, irrespective of the argatroban concentration)","inhibition at 0.25 µg/mL (bovine thrombin; normal plasma enriched with rivaroxaban 250 ng/ml, argatroban 0 ng/ml)",Structure (SMILES)
0%,0%,18%,31%,increased thrombin inhibition,–,–,–,–,"CC1CNc2c(cccc2S(=O)(=O)N[C@@H](CCCNC(=N)N)C(=O)N2CC[C@@H](C)C[C@@H]2C(=O)O)C1 (stereo partly drawn) [Argatroban, argatroban]"
–,–,–,–,–,42%,65%,increased factor Xa inhibition,5%,"O=C(NC[C@H]1CN(c2ccc(N3CCOCC3=O)cc2)C(=O)O1)c1ccc(Cl)s1 [Rivaroxaban, rivaroxaban]"
